This is an account of results in patent US20210395262A1, “INHIBITORS OF HUMAN IMMUNODEFICIENCY VIRUS REPLICATION” (ViiV HEALTHCARE UK (NO.5) LIMITED, priority 2018, published 2021).

Common to all, as to format: cell-based
Data set [1] deals with uninfected MT2 cells. In words: Compound cytotoxicity, XTT-based colorimetric assay. As to conditions: uninfected MT2 cells, day 4, XTT. The gist of the method: (§1)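 Run under the antiviral-assay protocol but without virus. Viability was read on day 4 and CC50 values were derived from the readout.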
For orientation: Formazan colour is commonly taken as a measure of viable cells.

Data set [2] concerns recombinant NL4-3 virus. Nature of the data set: HIV cell culture assay (antiviral activity, luciferase readout in MT-2 cells). The gist of the method:
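MT-2 cells infected for 4-5 days with NL4-3 reference virus carrying Renilla luciferase in place of part of nef, in presence of serial compound dilutions. Luciferase activity read with live-cell substrate. EC50 derived from median effect equation, slope parameter m.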

Data set [3] can be described thus: Compound cytotoxicity, XTT-based colorimetric assay. As to conditions: human. The gist of the method: as §1
The mark [4] stands for this setting: uninfected MT2 cells, day 4, XTT, read-out: CC50.
Where [5] appears, read: Human immunodeficiency virus 1, NL43, MT2.

The structures appear in SMILES notation. Where two headings read alike, the source gives them in different places. Bounds are passed on as bounds.

By CC50 is commonly meant the concentration that lowers cell viability or growth by half. The term EC50 denotes the concentration needed to bring the measured effect to its halfway point.

As to `C[C@@H]1CN(c2ccc3c(=O)n(-c4ccc(Cl)c5c(NS(C)(=O)=O)nn(CC(F)F)c45)c([C@H](Cc4cc(F)cc(F)c4)NC(=O)Cn4nc(C(F)F)c5c4C(F)(F)[C@@H]4C[C@H]54)nc3c2)C[C@H](C)O1` [Example 8, N—((S)-1-((3P)-3-(4-chloro-1-(2,2-difluoroethyl)-3-(methylsulfonamido)-1H-indazol-7-yl)-7-((2S,6R)-2,6-dimethylmorpholino)-4-oxo-3,4-dihydroquinazolin-2-yl)-2-(3,5-difluorophenyl)ethyl)-2-((3bS,4aR)-3-(difluoromethyl)-5,5-difluoro-3b,4,4a,5-tetrahydro-1H-cyclopropa[3,4]cyclopenta[1,2-c]pyrazol-1-yl)acetamide], the CC50 in data set [1] is greater than 500 nM. The EC50 in data set [2] (MT-2 cells infected for 4-5 days with recombinant NL4-3 virus carrying Renilla luciferase, luciferase activity, read-out: EC50) came to 0.093 nM.

Turning to `COC1CCCN(c2ccc3c(=O)n(-c4ccc(Cl)c5c(NS(C)(=O)=O)nn(C)c45)c([C@H](Cc4cc(F)cc(F)c4)NC(=O)Cn4nc(C(F)F)c5c4C(F)(F)[C@@H]4C[C@H]54)nc3c2)C1` (stereo partly drawn) [Example 29, N-((1S)-1-((3P)-3-(4-chloro-1-methyl-3-(methylsulfonamido)-1H-indazol-7-yl)-7-(3-methoxypiperidin-1-yl)-4-oxo-3,4-dihydroquinazolin-2-yl)-2-(3,5-difluorophenyl)ethyl)-2-((3bS,4aR)-3-(difluoromethyl)-5,5-difluoro-3b,4,4a,5-tetrahydro-1H-cyclopropa[3,4]cyclopenta[1,2-c]pyrazol-1-yl)acetamide], in data set [3] (setting [4]), the CC50 at 4 days is greater than 500 nM. The EC50 in data set [2] (setting [5]) was 0.052 nM.

Take `C[C@@H]1CN(c2ccc3c(=O)n(-c4ccc(Cl)c5c(NS(C)(=O)=O)nn(CC(F)F)c45)c([C@H](Cc4cc(F)cc(F)c4)NC(=O)Cn4nc(C(F)F)cc4C4CC4)nc3c2)C[C@H](C)O1` [Example 46, N—((S)-1-((3P)-3-(4-chloro-1-(2,2-difluoroethyl)-3-(methylsulfonamido)-1H-indazol-7-yl)-7-((2S,6R)-2,6-dimethylmorpholino)-4-oxo-3,4-dihydroquinazolin-2-yl)-2-(3,5-difluorophenyl)ethyl)-2-(5-cyclopropyl-3-(difluoromethyl)-1H-pyrazol-1-yl)acetamide]: the CC50 at 4 days in data set [3] (setting [4]) was greater than 500 nM. Besides, the EC50 in data set [2] (setting [5]) was 0.58 nM.

In the case of `Cc1cc(C(F)F)nn1C(C)C(=O)N[C@@H](Cc1cc(F)cc(F)c1)c1nc2cc(N3C[C@@H](C)O[C@@H](C)C3)ccc2c(=O)n1-c1ccc(Cl)c2c(NS(C)(=O)=O)nn(CC(F)F)c12` (stereo partly drawn) [Example 51, N—((S)-1-((3P)-3-(4-chloro-1-(2,2-difluoroethyl)-3-(methylsulfonamido)-1H-indazol-7-yl)-7-((2S,6R)-2,6-dimethylmorpholino)-4-oxo-3,4-dihydroquinazolin-2-yl)-2-(3,5-difluorophenyl)ethyl)-2-(3-(difluoromethyl)-5-methyl-1H-pyrazol-1-yl)propanamide], the CC50 at 4 days in data set [3] (setting [4]) was greater than 500 nM. Also, the EC50 in data set [2] (setting [5]) was 1.9 nM.

Take `C[C@@H]1CN(c2ccc3c(=O)n(-c4ccc(Cl)c5c(NS(C)(=O)=O)nn(CC(F)F)c45)c([C@H](Cc4cc(F)cc(F)c4)NC(=O)Cc4cn(C5CC5)c5ccccc45)nc3c2)C[C@H](C)O1` [Example 52, N—((S)-1-((3P)-3-(4-chloro-1-(2,2-difluoroethyl)-3-(methylsulfonamido)-1H-indazol-7-yl)-7-((2S,6R)-2,6-dimethylmorpholino)-4-oxo-3,4-dihydroquinazolin-2-yl)-2-(3,5-difluorophenyl)ethyl)-2-(1-cyclopropyl-1H-indol-3-yl)acetamide]: the CC50 at 4 days in data set [3] (setting [4]) was greater than 500 nM. Besides, the EC50 in data set [2] (setting [5]) is 1.1 nM.

As to `CC(C(=O)N[C@@H](Cc1cc(F)cc(F)c1)c1nc2cc(N3C[C@@H](C)O[C@@H](C)C3)ccc2c(=O)n1-c1ccc(Cl)c2c(NS(C)(=O)=O)nn(CC(F)F)c12)n1nc(C(F)(F)F)cc1C1CC1` (some centres unmarked) [Example 55], in data set [3] (setting [4]), the CC50 at 4 days was greater than 500 nM. In addition, the EC50 in data set [2] (setting [5]) was determined as 4.3 nM.

`Cn1nc(NS(C)(=O)=O)c2c(Cl)ccc(-n3c([C@H](Cc4cc(F)cc(F)c4)NC(=O)Cn4nc(C(F)F)c5c4C(F)(F)[C@@H]4C[C@H]54)nc4cc(N5C6CCC5COC6)ccc4c3=O)c21` [Example 64, N—((S)-1-(7-((1R,5S)-3-oxa-8-azabicyclo[3.2.1]octan-8-yl)-(3P)-3-(4-chloro-1-methyl-3-(methylsulfonamido)-1H-indazol-7-yl)-4-oxo-3,4-dihydroquinazolin-2-yl)-2-(3,5-difluorophenyl)ethyl)-2-((3bS,4aR)-3-(difluoromethyl)-5,5-difluoro-3b,4,4a,5-tetrahydro-1H-cyclopropa[3,4]cyclopenta[1,2-c]pyrazol-1-yl)acetamide]: the CC50 at 4 days in data set [3] is greater than 500 nM. Also, the EC50 in data set [2] (setting [5]) is 0.037 nM.
